Laboratory results reported in patent publication US20240024446A1 (priority 2020, published 2024).
Several values for one entry are separate records, joined by “and”; a condition that tells them apart may be missing. Identical values can stand only once.

Columns and labels:
[1] = format: in vivo; conditions: pig plasma; DON bolus 0.05 mg/kg at 11 weeks of age; DON-KLH = pigs immunised IM at 3 and 6 weeks, DON = control pigs
Description: Ten 3 week old pigs were used in the study, divided over 2 groups of 5 pigs each. The pigs in Group 1 were immunised IM twice at 3 and 6 weeks of age with DON-KLH (Test Article 1; example1). Group 2 served as a control and only received a control fluid. At the age of 11 weeks the animals were each administered DON (Fermentek, Israel) via a bolus at a dose of 0.05 mg/kg which (based on the daily feed intake) resembled a contamination level of 1 mg/kg feed. Blood samples of the pigs were taken juts before DON administration and 0.25, 0.5, 0.75, 1, 1.5, 2, 3, 4, 6, 8, and 12 h post DON administration.
Plasma analysis of unbound DON was done using a validated LC-MS/MS method on an Acquity® UPLC system coupled to a Xevo® TQ-S MS instrument (Waters, Zellik, Belgium). The lower limit of quantification of DON in pig plasma using this method is 0.1 ng/ml.
Toxicokinetic modeling of the plasma concentration-time profiles of DON was done by noncompartmental analysis (Phoenix, Pharsight Corporation, USA). Following parameters were calculated: area under the curve from time zero to infinite (AUC0→∞), maximal plasma concentration (Cmax), and time at maximal plasma concentration (tmax).

[2] = tested on: C6 cells; format: cell-based, rats
[3] = tested on: C6 cells; test: In vitro potency test/neutralization assay with fish sera on C6 cells; format: cell-based, rats
Description: In line with Example 7, an in vitro potency test/neutralization assay was performed with the sera raised as described in Example 8. For this, C6 cells were seeded at 2.0*10^4 cells/ml, 100 μl per well, and grown at 37° C., 5% CO2 for 3 days. Cells were incubated for 48 h, with a combination of 20 μg/ml AFB1 and 32× diluted serum derived from fish vaccinated with AFB1-KLH in GNE or vaccinated with a placebo. Percentages of live cells were determined by microscopical evaluation.

For `CC1=C[C@H]2O[C@@H]3[C@H](O)C[C@](C)([C@@]2(CO)[C@H](O)C1=O)[C@]31CO1` [DON, deoxynivalenol], the “AUC0→∞ of unbound DON” value [1] was 187 ± 33 and the “Cmax of unbound DON” value [1] was 30.8 ± 2.5.

For `COc1cc2c(c3oc(=O)c4c(c13)CCC4=O)[C@@H]1C=CO[C@@H]1O2` [AFB1, Aflatoxin B1], the “concentration from which toxic on C6 cells (dose response curve)” value [2] was no less than 20000 ng/mL and the “Percentage live cells after incubation with AFB1 and diluted fish serum” value [3] was 95% and 65%.
